Test results: US9926281B2 (priority 2014, dated 2018)
Where two headings read alike, the source gives them in different places.

How the values were obtained:
human ADAMTS-5 [1] = molecular target: T1, human ADAMTS-5 (Homo sapiens (Human), UniProt Q9UNA0); details: read-out: hADAMTS-5 potency IC50
human TACE = human TACE (Homo sapiens (Human), UniProt P78536); details: read-out: TACE potency IC50
rnADAMTS-5 (1-564-6H) = rnADAMTS-5 (1-564-6H) (Rattus norvegicus, UniProt Q6TY19); details: read-out: Rat ADAMTS-5 potency IC50
human ADAMTS-5 [2] = molecular target: T1, human ADAMTS-5; details: read-out: hADAMTS-5 potency IC50; remark: listed apart in the source
Protocol: Finally, the fluorescence is read on the Envision (Perkin Elmer) after an incubation of 90 min at 37° C.

human MMP13 = human MMP13 (Homo sapiens (Human), UniProt P45452); details: read-out: hMMP-13 potency IC50
Protocol: Human MMP13 is preactivated by incubated the enzyme in the same buffer complemented with 1 mM freshly prepared p-Aminophenylmercuric acetate (AMPA) for 1 hour at 37° C.

Chain of human TACE (P78536 whole entry, looked up, change not shown): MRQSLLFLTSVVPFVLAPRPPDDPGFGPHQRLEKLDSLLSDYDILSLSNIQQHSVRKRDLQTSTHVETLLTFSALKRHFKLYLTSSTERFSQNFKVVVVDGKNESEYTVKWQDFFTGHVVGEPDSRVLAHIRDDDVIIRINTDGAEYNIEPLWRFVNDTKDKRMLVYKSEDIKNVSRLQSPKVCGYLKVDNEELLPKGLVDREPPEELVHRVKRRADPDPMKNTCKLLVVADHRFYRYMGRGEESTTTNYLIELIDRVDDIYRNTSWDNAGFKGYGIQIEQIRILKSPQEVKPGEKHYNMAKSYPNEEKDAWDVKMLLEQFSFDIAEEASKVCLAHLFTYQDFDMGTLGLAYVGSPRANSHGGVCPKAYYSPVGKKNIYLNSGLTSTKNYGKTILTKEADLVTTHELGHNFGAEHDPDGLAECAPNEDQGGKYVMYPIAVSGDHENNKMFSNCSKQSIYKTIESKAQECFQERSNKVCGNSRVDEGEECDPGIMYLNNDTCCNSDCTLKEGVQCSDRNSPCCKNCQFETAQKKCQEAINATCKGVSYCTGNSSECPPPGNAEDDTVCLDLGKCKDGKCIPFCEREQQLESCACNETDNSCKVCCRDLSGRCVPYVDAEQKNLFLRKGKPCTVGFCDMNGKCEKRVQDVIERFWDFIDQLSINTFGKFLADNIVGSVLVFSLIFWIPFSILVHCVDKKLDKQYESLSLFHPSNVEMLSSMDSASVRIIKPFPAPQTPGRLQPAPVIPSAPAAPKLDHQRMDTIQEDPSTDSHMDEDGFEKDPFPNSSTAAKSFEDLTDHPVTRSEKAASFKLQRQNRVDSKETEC
T1 sequence (Q9UNA0 262-930): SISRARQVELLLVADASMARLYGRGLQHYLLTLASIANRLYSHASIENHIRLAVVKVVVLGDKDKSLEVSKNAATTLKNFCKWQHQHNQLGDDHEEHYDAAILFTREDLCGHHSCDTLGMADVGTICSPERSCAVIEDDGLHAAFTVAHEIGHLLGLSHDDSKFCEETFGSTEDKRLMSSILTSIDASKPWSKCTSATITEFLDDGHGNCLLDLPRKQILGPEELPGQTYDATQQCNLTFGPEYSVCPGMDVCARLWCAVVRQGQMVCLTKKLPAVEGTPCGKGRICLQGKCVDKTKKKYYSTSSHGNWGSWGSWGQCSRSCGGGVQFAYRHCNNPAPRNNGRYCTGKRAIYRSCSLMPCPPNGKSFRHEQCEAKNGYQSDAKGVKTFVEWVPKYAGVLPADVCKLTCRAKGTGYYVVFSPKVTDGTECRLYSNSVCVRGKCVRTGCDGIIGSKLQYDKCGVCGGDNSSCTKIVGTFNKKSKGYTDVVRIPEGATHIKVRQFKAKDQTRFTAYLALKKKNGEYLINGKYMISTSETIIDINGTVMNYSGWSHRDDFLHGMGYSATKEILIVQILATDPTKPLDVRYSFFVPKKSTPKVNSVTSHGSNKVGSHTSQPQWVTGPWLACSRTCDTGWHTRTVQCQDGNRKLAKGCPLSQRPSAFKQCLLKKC

SMILES	IC50 (human ADAMTS-5 [1]) [nM]	IC50 (human TACE) [nM]	IC50 (rnADAMTS-5 (1-564-6H)) [nM]	IC50 (human ADAMTS-5 [2]) [nM]	IC50 (human MMP13) [nM]
O=C1NC(=O)C(CCC(=O)N2CCN(c3ccc4occc4c3)CC2)(c2ccccc2)N1 (stereo not shown) [compound 25, 5-[3-[4-(benzofuran-5-yl)piperazin-1-yl]-3-oxo-propyl]-5-phenyl-imidazolidine-2,4-dione]	138	> 2000	–	–	–
Cc1ccc(N2CCN(C(=O)CCC3(c4ccccc4)NC(=O)NC3=O)CC2)c(C)c1 (stereo not shown) [compound 31, 5-[3-[4-(2,4-dimethylphenyl)piperazin-1-yl]-3-oxo-propyl]-5-phenyl-imidazolidine-2,4-dione]	1060	–	–	–	–
Cc1ccc(N2CCN(C(=O)CCC3(C)NC(=O)NC3=O)CC2)c(C)c1 (stereo not shown) [compound 38, 5-[3-[4-(2,4-dimethylphenyl)piperazin-1-yl]-3-oxo-propyl]-5-methyl-imidazolidine-2,4-dione]	> 4000	–	–	–	–
CC1(CCC(=O)N2CCN(c3cccc(Cl)c3Cl)CC2)NC(=O)NC1=O (stereo not shown) [compound 41, 5-[3-[4-(2,3-dichlorophenyl)piperazin-1-yl]-3-oxo-propyl]-5-methyl-imidazolidine-2,4-dione]	2660	–	–	–	–
CC1(CCC(=O)N2CCN(c3ccccn3)CC2)NC(=O)NC1=O (stereo not shown) [compound 42, 5-methyl-5-[3-oxo-3-[4-(2-pyridyl)piperazin-1-yl]propyl]imidazolidine-2,4-dione]	> 3980	–	–	–	–
CC1(CCC(=O)N2CCN(c3cccc(Br)c3)CC2)NC(=O)NC1=O (stereo not shown) [compound 48, 5-[3-[4-(3-bromophenyl)piperazin-1-yl]-3-oxo-propyl]-5-methyl-imidazolidine-2,4-dione]	391	–	–	–	–
CN(C)CCC1(CCC(=O)N2CCN(c3cc(Cl)cc(Cl)c3)CC2)NC(=O)NC1=O (stereo not shown) [compound 58, 5-[3-[4-(3,5-dichlorophenyl)piperazin-1-yl]-3-oxo-propyl]-5-(2-dimethylaminoethyl)imidazolidine-2,4-dione]	> 20000	–	–	–	–
CC1(CCC(=O)N2CCN(c3nccs3)CC2)NC(=O)NC1=O (stereo not shown) [compound 59, 5-methyl-5-[3-oxo-3-(4-thiazol-2-ylpiperazin-1-yl)propyl]imidazolidine-2,4-dione]	> 20000	–	–	–	–
Cc1cc(F)ccc1N1CCN(C(=O)CCC2(C)NC(=O)NC2=O)CC1 (stereo not shown) [compound 61, 5-[3-[4-(4-fluoro-2-methyl-phenyl)piperazin-1-yl]-3-oxo-propyl]-5-methyl-imidazolidine-2,4-dione]	2940	–	–	–	–
Cc1ccccc1N1CCN(C(=O)CCC2(CN(C)C)NC(=O)NC2=O)CC1 (stereo not shown) [compound 119, 5-(dimethylaminomethyl)-5-[3-[4-(o-tolyl)piperazin-1-yl]-3-oxo-propyl]imidazolidine-2,4-dione]	1740	–	–	–	–
C[C@@H]1CN(C(=O)CCC2(c3ccccc3)NC(=O)NC2=O)CCN1c1ccccc1 (stereo partly drawn) [compound 131, 5-[3-[(3R)-3-methyl-4-phenyl-piperazin-1-yl]-3-oxo-propyl]-5-phenyl-imidazolidine-2,4-dione]	1260	–	–	–	–
Cc1cccc(C2(CCC(=O)N3CCN(c4cccc(Cl)c4)CC3)NC(=O)NC2=O)c1 (stereo not shown) [compound 141, 5-[3-[4-(3-chlorophenyl)piperazin-1-yl]-3-oxo-propyl]-5-(m-tolyl)imidazolidine-2,4-dione]	119	–	–	–	–
CC1CN(C(=O)CCC2(C3CC3)NC(=O)NC2=O)CCN1c1cccc(F)c1 (stereo not shown) [compound 149, 5-cyclopropyl-5-[3-[4-(3-fluorophenyl)-3-methyl-piperazin-1-yl]-3-oxo-propyl]imidazolidine-2,4-dione]	79	–	–	–	–
CC1CN(C(=O)CCC2(C3CC3)NC(=O)NC2=O)CCN1c1cccc(Cl)c1 (stereo not shown) [compound 150, 5-[3-[4-(3-chlorophenyl)-3-methyl-piperazin-1-yl]-3-oxo-propyl]-5-cyclopropyl-imidazolidine-2,4-dione]	95	–	–	–	–
CC(CC1(C2CC2)NC(=O)NC1=O)C(=O)N1CCN(c2cccc(F)c2)[C@@H](C)C1 (stereo partly drawn) [compound 190, 5-cyclopropyl-5-[3-[(3S)-4-(3-fluorophenyl)-3-methyl-piperazin-1-yl]-2-methyl-3-oxo-propyl]imidazolidine-2,4-dione]	–	> 20000	15	22	3060
CC(CC1(C2CC2)NC(=O)NC1=O)C(=O)N1CCN(c2ccc(F)c(F)c2)[C@@H](C)C1 (stereo partly drawn) [compound 191, 5-cyclopropyl-5-[3-[(3S)-4-(3,4-difluorophenyl)-3-methyl-piperazin-1-yl]-2-methyl-3-oxo-propyl]imidazolidine-2,4-dione]	–	> 20000	11	20	1880
CC(CC1(C2CC2)NC(=O)NC1=O)C(=O)N1CCN(c2ccc(F)c(Cl)c2)[C@@H](C)C1 (stereo partly drawn) [compound 192, 5-[3-[(3S)-4-(3-chloro-4-fluoro-phenyl)-3-methyl-piperazin-1-yl]-2-methyl-3-oxo-propyl]-5-cyclopropyl-imidazolidine-2,4-dione]	–	> 4000	6	11	865
CC(CC1(C2CC2)NC(=O)NC1=O)C(=O)N1CCN(c2ccc(Cl)cc2)[C@@H](C)C1 (stereo partly drawn) [compound 193, 5-[3-[(3S)-4-(4-chlorophenyl)-3-methyl-piperazin-1-yl]-2-methyl-3-oxo-propyl]-5-cyclopropyl-imidazolidine-2,4-dione]	–	> 20000	7	23	433
CC(CC1(C2CC2)NC(=O)NC1=O)C(=O)N1CCN(c2cc(F)cc(Cl)c2)[C@@H](C)C1 (stereo partly drawn) [compound 194, 5-[3-[(3S)-4-(3-chloro-5-fluoro-phenyl)-3-methyl-piperazin-1-yl]-2-methyl-3-oxo-propyl]-5-cyclopropyl-imidazolidine-2,4-dione]	–	> 4000	5	11	952
CC(CC1(C2CNC2)NC(=O)NC1=O)C(=O)N1CCN(c2cc(Cl)cc(Cl)c2)CC1 (stereo not shown) [compound 196]	–	> 3930	104	102	> 20000
CSCCC1(CC(C)C(=O)N2CCN(c3cc(Cl)cc(Cl)c3)CC2)NC(=O)NC1=O (stereo not shown) [compound 197, 5-[3-[4-(3,5-dichlorophenyl)piperazin-1-yl]-2-methyl-3-oxo-propyl]-5-(2-methylsulfanylethyl)imidazolidine-2,4-dione]	–	134	21	26	> 4000
CC(CC1(CC2CCN(C(=O)OC(C)(C)C)CC2)NC(=O)NC1=O)C(=O)N1CCN(c2cc(Cl)cc(Cl)c2)CC1 (stereo not shown) [compound 198, tert-butyl 4-[[4-[3-[4-(3,5-dichlorophenyl)piperazin-1-yl]-2-methyl-3-oxo-propyl]-2,5-dioxo-imidazolidin-4-yl]methyl]piperidine-1-carboxylate]	–	817	38	52	1940
CC(CC1(C2CCOCC2)NC(=O)NC1=O)C(=O)N1CCN(c2cc(Cl)cc(Cl)c2)CC1 (stereo not shown) [compound 199, 5-[3-[4-(3,5-dichlorophenyl)piperazin-1-yl]-2-methyl-3-oxo-propyl]-5-tetrahydropyran-4-yl-imidazolidine-2,4-dione]	–	1050	48	62	> 20000
COC(CC1(C2CC2)NC(=O)NC1=O)C(=O)N1CCN(c2cc(Cl)cc(Cl)c2)CC1 (stereo not shown) [compound 206, 5-cyclopropyl-5-[3-[4-(3,5-dichlorophenyl)piperazin-1-yl]-2-methoxy-3-oxo-propyl]imidazolidine-2,4-dione]	–	> 4000	40	60	> 4000
C[C@H]1CN(C(=O)CC[C@@]2(C3CC3)NC(=O)NC2=O)CCN1c1ccc(Cl)c(Cl)c1 [compound 207, (5S)-5-cyclopropyl-5-[3-[(3S)-4-(3,4-dichlorophenyl)-3-methyl-piperazin-1-yl]-3-oxo-propyl]imidazolidine-2,4-dione]	–	> 4000	6	12	2880
CN(C)c1cccc(N2CCN(C(=O)CCC3(C4CC4)NC(=O)NC3=O)CC2)c1 (stereo not shown) [compound 209, 5-cyclopropyl-5-[3-[4-[3-(dimethylamino)phenyl]piperazin-1-yl]-3-oxo-propyl]imidazolidine-2,4-dione]	–	> 4000	565	836	> 20000
CC(CC1(C)NC(=O)NC1=O)C(=O)N1CCN(c2ccc(F)c(F)c2)CC1 (stereo not shown) [compound 211, 5-[3-[4-(3,4-difluorophenyl)piperazin-1-yl]-2-methyl-3-oxo-propyl]-5-methyl-imidazolidine-2,4-dione]	–	3740	23	48	377
CC(CC1(C)NC(=O)NC1=O)C(=O)N1CCN(c2cc(F)cc(F)c2)[C@@H](C)C1 (stereo partly drawn) [compound 213, 5-[3-[(3S)-4-(3,5-difluorophenyl)-3-methyl-piperazin-1-yl]-2-methyl-3-oxo-propyl]-5-methyl-imidazolidine-2,4-dione]	–	> 20000	21	30	> 4000
Cc1ccc(F)cc1N1CCN(C(=O)C(C)CC2(C)NC(=O)NC2=O)C[C@@H]1C (stereo partly drawn) [compound 216, 5-[3-[(3S)-4-(5-fluoro-2-methyl-phenyl)-3-methyl-piperazin-1-yl]-2-methyl-3-oxo-propyl]-5-methyl-imidazolidine-2,4-dione]	–	> 4000	250	305	> 20000
CC(CC1(C)NC(=O)NC1=O)C(=O)N1CCN(c2ccc(F)c(Cl)c2)[C@@H](C)C1 (stereo partly drawn) [compound 405, 5-{3-[(S)-4-(3-Chloro-4-fluoro-phenyl)-3-methyl-piperazin-1-yl]-2-methyl-3-oxo-propyl}-5-methyl-imidazolidine-2,4-dione]	–	> 4000	18	22	2330
